Results taken from US20060148763A1, “Compounds and methods for regulating triglyceride levels” (priority 2005, published 2006).

Tested on: total serum cholesterol (TC)
Experiment: Phase II cross-over study of P5P alone and with lisinopril in hypertensive type 2 diabetic patients: total cholesterol
Type: in vivo, human
Details: for reduction in serum TC levels (placebo corrected): patients having elevated TC levels (>5.15 mmol/L)
Method: Objective—A phase II clinical study was conducted to determine the effects of pyridoxal-5′-phosphate in combination with lisinopril on blood pressure and metabolic function in hypertensive patients with type 2 diabetes.
Summary of Study Design—The phase II study was a randomized, parallel group, cross-over, double-blinded to study medication, placebo-controlled comparison of P5P BID at total daily doses of 100, 300, or 1000 mg alone and in combination with 20 mg lisinopril given once daily (QD). In order to protect against antihypertensive and metabolic carry-over effects of lisinopril, all patients were randomized in 2 different treatment sequences. Patients randomized in the first treatment sequence receive an 8-week treatment with lisinopril 20 mg and P5P (or placebo) and then an 8-week treatment with P5P alone (or placebo). Patients randomized in the second treatment sequence receive an 8-week treatment with P5P alone and then an 8-week treatment with lisinopril 20 mg and P5P (or placebo). In each treatment sequence, all patients were randomized to P5P at the different prespecified dosages.
Mean trough sitting and standing BP were measured at each visit. Twenty-four hour ambulatory BP monitoring (ABPM) were performed at Visit 2 prior to randomization (end of washout period) and after week 8 (Visit 5) and week 16 (Visit 8) weeks of active therapy. Laboratory tests were performed at screening (Visit 1), prior to randomization (Visit 2), at week 2 (Visit 3a), week 8 (Visit 5), week 10 (Visit 6a), and at week 16 (Visit 8).
Treatment Plan—Two to Four-week Washout (Baseline) Period. Patients were instructed on the proper procedure for discontinuing their current antihypertensive medications (discontinuation or tapering) according to the manufacturer's label specifications. If a patient's current antihypertensive treatment needed to be tapered earlier, the Investigator complied with the corresponding timelines before randomization. With the exception of any tapering off of prior therapy, if any, no other anti-hypertensive medication was given to the patient during the washout period. Patients continued any existing diabetic treatment with sulfonylureas (tolbutamide, tolazamide, acetohexamide, chlorpropamide and second generation glyburide, glipizide, glimepiride), D-Phenylalanine derivatives, metformin, thiazolidinediones, acarbose, miglitol, and/or insulin throughout the study. Patients received placebo to be taken twice daily during the washout period. Standard diabetic medication was maintained throughout study. The duration of the washout period was two to four weeks, at the discretion of the Investigator taking into consideration whether the patient's blood pressure had stabilized following removal of any prior antihypertensive medication.
Active (Study) Medication Period: After the washout period, eligible patients were randomized to one of the 2 following sequences of treatment for 16 weeks.
Week 0 to 8: Treatment period (P5P alone (or placebo) or P5P (or placebo) and Lisinopril)
Week 8 to 16: Treatment period (P5P alone (or placebo) or P5P (or placebo) and Lisinopril)
Study Groups—The patients were randomized into one of […] groups:
Sequence 1 P5P 300 mg and then P5P 300 mg+Lisinopril 20 mg
Sequence 2 P5P 300 mg+Lisinopril 20 mg and then P5P 300 mg alone
All medications were taken at the same time each day during washout and treatment periods:
Other Efficacy Endpoints—Analytical efficacy measurements, including markers of metabolic function (insulinemia, fasting serum glucose, glycated hemoglobin, LDL, HDL, non-HDL and triglycerides), endothelial function (ICAM-1, VCAM-1, E-selectin and albuminuria), kidney function (creatinine, glomular filtration rate), CRP and homocysteine, were conducted on blood samples taken on Visits 2, 5 and 8. Samples were sent to a central laboratory for analysis.

[1] = P5P 300 mg, patients with TC >5.18 mmol/L

Cc1ncc(COP(=O)(O)O)c(C=O)c1O [P5P, pyridoxal-5′-phosphate]
TC change vs baseline (b) (P5P 300 mg, TC non-stratified): −0.18 mmol/L (p = 0.273)b
reduction in serum TC levels (placebo corrected) (P5P 300 mg): about 0.91 mmol/L
TC change [1]: −0.91 mmol/L (p = 0.02)
TC reduction vs baseline (b) [1]: (15.7%)b
TC change vs baseline (b) (P5P 1000 mg, TC non-stratified): −0.29 mmol/L (p = 0.075)b
reduction in serum TC levels (placebo corrected) (P5P 1000 mg): about 1.03 mmol/L
TC change vs baseline (b) (P5P 1000 mg, patients with TC >5.18 mmol/L): −1.03 mmol/L (p = 0.001)b
